Source: patent US12679878B2, “CRF2 receptor agonists and their use in therapy” (SANOFI, priority 2020, dated 2026)
Like-named read-outs stand apart in the source and are kept apart here. Starred links: 1 amine or outer side, 2 acyl side, 3 side chain; linkers in the order of their positions; H or OH if unused. Non-standard residues stand in square brackets, D forms with d. Residues, ends and D or L forms follow the SMILES beside them. Groups on a side chain read outwards from the residue. *: point of attachment. C18 diacid = O=C(O)CCCCCCCCCCCCCCCCC(=O)*; γGlu = O=C(O)[C@H](CCC(=O)[*:2])N[*:1]; AEEA = NCCOCCOCC(=O)O; Aib = CC(C)(N)C(=O)O

Key:
CRF1R receptor = biological target: T1, CRF1R receptor (Homo sapiens, UniProt P34998); assay: cAMP activity at anti-target CRF1R, CHO-K1 cell line clone 2 (Example 19.10); format: cell-based; details: CRF1R CHO-K1 clone 2; for EC50: 0% HSA, read-out: EC50 [nM] 0% HSA; for Emax: 100% = Sauvagine at 100 nM
T1 construct: host or cells: CHO-K1 clone 2
T1 sequence (P34998 24-415): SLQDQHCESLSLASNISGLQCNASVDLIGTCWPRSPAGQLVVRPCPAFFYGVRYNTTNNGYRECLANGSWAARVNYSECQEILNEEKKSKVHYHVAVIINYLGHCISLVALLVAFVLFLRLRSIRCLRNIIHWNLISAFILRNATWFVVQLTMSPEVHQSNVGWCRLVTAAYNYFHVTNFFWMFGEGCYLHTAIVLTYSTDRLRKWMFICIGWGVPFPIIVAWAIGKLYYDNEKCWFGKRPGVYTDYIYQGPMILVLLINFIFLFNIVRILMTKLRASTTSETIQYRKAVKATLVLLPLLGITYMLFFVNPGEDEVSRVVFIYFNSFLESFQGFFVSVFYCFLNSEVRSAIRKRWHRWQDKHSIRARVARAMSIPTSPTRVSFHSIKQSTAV
How it was run: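 The cAMP read-out used the same protocol as the previous assay, except that Sauvagine at 100 nM set the 100% activation control. Cells were CHO-K1 clone 2 overexpressing CRF1R, cultured in F12 medium with 10% FBS and G418 and stored frozen until use.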

human CRF2α receptor = biological target: T2, human CRF2α receptor (Homo sapiens, UniProt Q13324); assay: cAMP agonism at human CRF2 α receptor in TeloHEAC cells (Example 7); format: cell-based; details: cAMP HTRF, TeloHEAC cells stably expressing human CRF2 α
T2 construct: expressed in transfected cells; host or cells: TeloHEAC
T2 sequence (Q13324 1-411): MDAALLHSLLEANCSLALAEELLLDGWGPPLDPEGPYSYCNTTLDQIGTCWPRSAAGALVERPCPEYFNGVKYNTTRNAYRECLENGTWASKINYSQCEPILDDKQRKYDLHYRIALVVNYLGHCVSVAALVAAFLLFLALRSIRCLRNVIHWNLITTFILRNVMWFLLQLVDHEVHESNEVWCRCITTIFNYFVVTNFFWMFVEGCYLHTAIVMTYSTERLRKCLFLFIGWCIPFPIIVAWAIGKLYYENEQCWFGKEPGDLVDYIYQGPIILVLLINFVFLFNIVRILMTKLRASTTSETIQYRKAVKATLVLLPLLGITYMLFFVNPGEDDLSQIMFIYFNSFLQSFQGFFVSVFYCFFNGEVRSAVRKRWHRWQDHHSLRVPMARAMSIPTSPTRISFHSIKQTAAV
How it was run: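 Percent activation was referenced to 1000 nM UCN2 (100%), and EC50 values taken as concentrations giving half of maximal response. The read-out was a homogeneous time-resolved fluorescence cAMP kit, fluorescence ratio 665/620 nm. Thawed cells (2000/well) saw compound for 30 min at RT in buffer with 2 mM IBMX and 0%/0.1% HSA.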

[1] = 0% HSA, read-out: EC50 [nM], 0% HSA
[2] = 0.1% HSA, read-out: EC50 [nM], 0.1% HSA

Q: What does the source list for CC[C@H](C)[C@H](N)C(=O)N[C@H](C(=O)N[C@@H](CC(C)C)C(=O)N[C@@H](CO)C(=O)N[C@@H](CC(C)C)C(=O)N[C@@H](CC(=O)O)C(=O)N[C@H](C(=O)N1CCC[C@H]1C(=O)N[C@H](C(=O)N[C@@H](CCCCN)C(=O)N[C@@H](CC(C)C)C(=O)N[C@@H](CCCCNC(=O)COCCOCCNC(=O)COCCOCCNC(=O)CC[C@H](NC(=O)CCCCCCCCCCCCCCCCC(=O)O)C(=O)O)C(=O)N[C@@H](CCC(N)=O)C(=O)N[C@H](C(=O)N[C@@H](CC(C)C)C(=O)N[C@@H](CC(C)C)C(=O)N[C@@H](CCCCN)C(=O)N[C@@H](CCC(N)=O)C(=O)N[C@@H](CCC(=O)O)C(=O)N[C@@H](CCCNC(=N)N)C(=O)N[C@@H](CCC(N)=O)C(=O)N[C@@H](CCCCN)C(=O)N[C@@H](CCCCN)C(=O)N[C@@H](CCC(N)=O)C(=O)N[C@@H](CCCNC(=N)N)C(=O)N[C@@H](CCC(N)=O)C(=O)N[C@@H](CCC(N)=O)C(=O)N[C@@H](C)C(=O)N[C@@H](CCC(=O)O)C(=O)N[C@@H](CCCCN)C(=O)N[C@@H](CC(N)=O)C(=O)N[C@@H](CCCCN)C(=O)N[C@@H](CCC(N)=O)C(=O)N[C@H](C(=O)N[C@@H](CC(C)C)C(=O)N[C@@H](C)C(=O)N[C@@H](CCC(N)=O)C(=O)N[C@H](C(N)=O)C(C)C)[C@@H](C)CC)[C@@H](C)CC)[C@@H](C)CC)C(C)C)C(C)C [compound 122] (H-IVLSLDVPIKLK([AEEA-AEEA-γGlu-C18 diacid])QILLKQERQKKQRQQAEKNKQILAQV-NH2; N-terminus assumed)?
A: EC50 (CRF1R receptor): > 100 nM; Emax (CRF1R receptor): 6.9%; EC50 (human CRF2α receptor; [1]): 0.04 nM; EC50 (human CRF2α receptor; [2]): 1.71 nM

Q: What does the source list for CC[C@H](C)[C@H](N)C(=O)N[C@H](C(=O)N[C@@H](CC(C)C)C(=O)N[C@@H](CO)C(=O)N[C@@H](CC(C)C)C(=O)N[C@@H](CC(=O)O)C(=O)N[C@H](C(=O)N1CCC[C@H]1C(=O)N[C@H](C(=O)N[C@@H](CCCCN)C(=O)N[C@@H](CC(C)C)C(=O)N[C@@H](CCCCNC(=O)COCCOCCNC(=O)COCCOCCNC(=O)CC[C@H](NC(=O)CCCCCCCCCCCCCCCCC(=O)O)C(=O)O)C(=O)N[C@@H](CCC(N)=O)C(=O)N[C@H](C(=O)N[C@@H](CC(C)C)C(=O)N[C@@H](CC(C)C)C(=O)N[C@@H](CCC(=O)O)C(=O)N[C@@H](CCC(N)=O)C(=O)N[C@@H](C)C(=O)N[C@@H](CCCNC(=N)N)C(=O)N[C@@H](CCC(N)=O)C(=O)N[C@@H](CCCCN)C(=O)NC(C)(C)C(=O)N[C@@H](CCC(N)=O)C(=O)N[C@@H](CCCNC(=N)N)C(=O)N[C@@H](C)C(=O)N[C@@H](CCC(N)=O)C(=O)N[C@@H](C)C(=O)N[C@@H](CCC(=O)O)C(=O)N[C@@H](CCCCN)C(=O)N[C@@H](CC(N)=O)C(=O)N[C@@H](CCCCN)C(=O)N[C@@H](CCCNC(=N)N)C(=O)N[C@H](C(=O)N[C@@H](CC(C)C)C(=O)N[C@@H](CCC(=O)O)C(=O)N[C@@H](CCCNC(=N)N)C(=O)N[C@H](C(N)=O)C(C)C)[C@@H](C)CC)[C@@H](C)CC)[C@@H](C)CC)C(C)C)C(C)C [compound 123] (H-IVLSLDVPIKLK([AEEA-AEEA-γGlu-C18 diacid])QILLEQARQK[Aib]QRAQAEKNKRILERV-NH2; N-terminus assumed)?
A: EC50 (CRF1R receptor): > 100 nM; Emax (CRF1R receptor): 9%; EC50 (human CRF2α receptor; [1]): 0.33 nM; EC50 (human CRF2α receptor; [2]): 9.74 nM

Q: How did the EC50 (CRF1R receptor) turn out when CC[C@H](C)[C@H](N)C(=O)N[C@H](C(=O)N[C@@H](CC(C)C)C(=O)N[C@@H](CO)C(=O)N[C@@H](CC(C)C)C(=O)N[C@@H](CC(=O)O)C(=O)N[C@H](C(=O)N1CCC[C@H]1C(=O)N[C@H](C(=O)N[C@@H](CCCCN)C(=O)N[C@@H](CC(C)C)C(=O)N[C@@H](CCCCNC(=O)COCCOCCNC(=O)COCCOCCNC(=O)CC[C@H](NC(=O)CCCCCCCCCCCCCCCCC(=O)O)C(=O)O)C(=O)N[C@@H](CCC(N)=O)C(=O)N[C@H](C(=O)N[C@@H](CC(C)C)C(=O)N[C@@H](CC(C)C)C(=O)N[C@@H](CCCCN)C(=O)N[C@@H](CCC(N)=O)C(=O)N[C@@H](C)C(=O)N[C@@H](CCCNC(=N)N)C(=O)N[C@@H](CCC(N)=O)C(=O)N[C@@H](CCCCN)C(=O)NC(C)(C)C(=O)N[C@@H](CCC(N)=O)C(=O)N[C@@H](CCCNC(=N)N)C(=O)N[C@@H](C)C(=O)N[C@@H](CCC(N)=O)C(=O)N[C@@H](C)C(=O)N[C@@H](CCC(=O)O)C(=O)N[C@@H](CCCCN)C(=O)N[C@@H](CC(N)=O)C(=O)N[C@@H](CCCCN)C(=O)N[C@@H](CCCNC(=N)N)C(=O)N[C@H](C(=O)N[C@@H](CC(C)C)C(=O)N[C@@H](CCC(=O)O)C(=O)N[C@@H](CCCNC(=N)N)C(=O)N[C@H](C(N)=O)C(C)C)[C@@H](C)CC)[C@@H](C)CC)[C@@H](C)CC)C(C)C)C(C)C [compound 124] (H-IVLSLDVPIKLK([AEEA-AEEA-γGlu-C18 diacid])QILLKQARQK[Aib]QRAQAEKNKRILERV-NH2; N-terminus assumed) was run?
A: The EC50 was greater than 100 nM.

Q: And the Emax (CRF1R receptor)?
A: The Emax was -2.5%.

Q: And the EC50 (human CRF2α receptor; [1])?
A: The EC50 was 0.11 nM.

Q: And the EC50 (human CRF2α receptor; [2])?
A: Its EC50 is 4.37 nM.

Q: CC[C@H](C)[C@H](N)C(=O)N[C@H](C(=O)N[C@@H](CC(C)C)C(=O)N[C@@H](CO)C(=O)N[C@@H](CC(C)C)C(=O)N[C@@H](CC(=O)O)C(=O)N[C@H](C(=O)N1CCC[C@H]1C(=O)N[C@H](C(=O)N[C@@H](CCCCN)C(=O)N[C@@H](CC(C)C)C(=O)N[C@@H](CCCCNC(=O)COCCOCCNC(=O)COCCOCCNC(=O)CC[C@H](NC(=O)CCCCCCCCCCCCCCCCC(=O)O)C(=O)O)C(=O)N[C@@H](CCC(N)=O)C(=O)N[C@H](C(=O)N[C@@H](CC(C)C)C(=O)N[C@@H](CC(C)C)C(=O)N[C@@H](CCC(=O)O)C(=O)N[C@@H](CCC(N)=O)C(=O)N[C@@H](C)C(=O)N[C@@H](CCCNC(=N)N)C(=O)N[C@@H](CCC(N)=O)C(=O)N[C@@H](CCCCN)C(=O)NC(C)(C)C(=O)N[C@@H](CCC(N)=O)C(=O)N[C@@H](CCCNC(=N)N)C(=O)N[C@@H](CCC(=O)O)C(=O)N[C@@H](CCC(N)=O)C(=O)N[C@@H](C)C(=O)N[C@@H](CCC(=O)O)C(=O)N[C@@H](CCCCN)C(=O)N[C@@H](CC(N)=O)C(=O)N[C@@H](CCCCN)C(=O)N[C@@H](CCCNC(=N)N)C(=O)N[C@H](C(=O)N[C@@H](CC(C)C)C(=O)N[C@@H](CCC(=O)O)C(=O)N[C@@H](CCCNC(=N)N)C(=O)N[C@H](C(N)=O)C(C)C)[C@@H](C)CC)[C@@H](C)CC)[C@@H](C)CC)C(C)C)C(C)C [compound 125] (H-IVLSLDVPIKLK([AEEA-AEEA-γGlu-C18 diacid])QILLEQARQK[Aib]QREQAEKNKRILERV-NH2; N-terminus assumed) was tested. Which EC50 (CRF1R receptor) did it give?
A: The EC50 was greater than 100 nM.

Q: What about the Emax (CRF1R receptor) of the same compound?
A: The Emax was 17.7%.

Q: What about the EC50 (human CRF2α receptor; [1]) of the same compound?
A: Its EC50 is 0.47 nM.

Q: And the EC50 (human CRF2α receptor; [2])?
A: Its EC50 is 19.9 nM.
